Laboratory results: patent US20150283259A1, “DRUG-PROTEIN CONJUGATES” (priority 2012, published 2015)

Experiments:
[1] = test system: HER2-negative MCF-7 cells; assay: In vitro cell viability assay (Cell-Titer Glo Luminescence), HER2-negative cells; assay type: cell-based; conditions: 96 h incubation, 200-0.1 nM free AHX-DM1, 3 fold dilutions
Description: (§1) The in vitro efficacy of the antibody and Fab conjugates prepared in Examples 3 and 4 respectively were determined by measuring the inhibitory effect on cell growth of HER-2 receptor over-expressing cancer cell lines.
(§2) Loss of tumour cell viability following treatment with cytotoxic drugs or ADCs in vitro can be measured by growing cell lines in the presence of increasing concentrations of drugs or ADCs and quantifying the loss of proliferation or metabolic activity using Cell-Titer Glo® Luminescence reagent (Promega Corp. Technical Bullettin TB288; Lewis Phillips G. D, Cancer Res 2008; 68:9280-9290). […]
(§3) HER2-positive SK-BR-3 and HER2-negative MCF-7 cells were trypsinised with 3 mL Trypsin EDTA for 5-15 min. […] Cells were counted using a Neubauer haemocytometer and adjusted to a cell density of 3×10^4/mL for MCF-7 and 5×10^4/mL for SK-BR-3 respectively. […]
(§4) The cell viability assay was carried out using the Cell-Titer Glo® Luminescence reagent, as described by the manufacturer's instructions, (Promega Corp. Technical Bulletin TB288; Lewis Phillips G. D, Cancer Res 2008; 68:9280-9290). […]
(§5) Luminescence was recorded using a plate reader (e.g. MD SpectramaxM3 plate reader), and data subsequently analysed using a four parameter non-linear regression model.
(§6) Viability is expressed as % of untreated cells. […]

[2] = test system: HER2-positive SK-BR-3 cells; assay: In vitro cell viability assay (Cell-Titer Glo Luminescence), HER2-positive cells; assay type: cell-based; conditions: 96 h incubation, 40-0.018 nM, 2-fold dilutions, viability as % of untreated cells
Description: as §1, §2, §3, §4, §5, §6

## COc1cc2cc(c1Cl)N(C)C(=O)C[C@H](OC(=O)[C@H](C)N(C)C(=O)CCCCCN)[C@]1(C)O[C@H]1[C@H](C)[C@@H]1C[C@@](O)(NC(=O)O1)[C@H](OC)/C=C/C=C(\C)C2 [AHX-DM1]
[1]
  IC50: 36.3 nM
[2]
  IC50: 3.4 nM
